Measurements as given in publication PMC3720860, “Molecular and Functional Characterization of Odorant-Binding Protein Genes in an Invasive Vector Mosquito, Aedes albopictus” (PLoS ONE, 2013).

How the values were obtained:
Type in all cases: binding
AalbOBP39 [1] = biological target: T1, AalbOBP39 (Aedes albopictus, UniProt M4W733); assay: 1-NPN competitive fluorescence displacement; settings: 20 mM sodium acetate, pH 7.4, 25 C; 25 ug/ml protein; ligand 6.4-19.2 uM; 30.4 uM 1-NPN
T1 construct: 6xHis-tag fusion, pET-22b(+), E. coli BL21 (DE3); Ni-NTA and gel filtration
T1 sequence (M4W733 19-143): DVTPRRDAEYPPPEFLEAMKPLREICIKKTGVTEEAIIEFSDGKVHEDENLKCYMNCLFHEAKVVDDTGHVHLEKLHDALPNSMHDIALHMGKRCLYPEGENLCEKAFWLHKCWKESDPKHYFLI

AalbOBP37 [2] = biological target: T2, AalbOBP37 (Aedes albopictus, UniProt M4VP05); assay: 1-NPN competitive fluorescence displacement; settings: 20 mM sodium acetate, pH 7.4, 25 C; 25 ug/ml protein; ligand 6.4-19.2 uM; 32 uM 1-NPN
T2 construct: 6xHis-tag fusion, pET-22b(+), E. coli BL21 (DE3); Ni-NTA and gel filtration
T2 sequence (M4VP05 19-149 limits assumed): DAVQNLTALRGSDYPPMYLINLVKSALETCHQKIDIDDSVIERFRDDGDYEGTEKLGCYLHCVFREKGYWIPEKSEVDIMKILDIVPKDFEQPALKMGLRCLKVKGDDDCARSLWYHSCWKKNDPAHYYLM

AalbOBP37 [3] = biological target: T2, AalbOBP37; assay: direct fluorescence titration; settings: 20 mM sodium acetate, pH 7.4, 25 C; 25 ug/ml protein; excitation 337 nm; reporter ligand
AalbOBP39 [4] = biological target: T1, AalbOBP39; assay: direct fluorescence titration; settings: 20 mM sodium acetate, pH 7.4, 25 C; 25 ug/ml protein; excitation 337 nm; reporter ligand

## c1ccc2[nH]ccc2c1 [indole]
AalbOBP39 [1]
  normalized 1-NPN fluorescence: AalbOBP37 and AalbOBP39 exhibited relatively strong binding to both indole and skatole
AalbOBP37 [2]
  normalized 1-NPN fluorescence: AalbOBP37 and AalbOBP39 exhibited relatively strong binding to both indole and skatole

## Cc1c[nH]c2ccccc12 [skatole]
AalbOBP39 [1]
  normalized 1-NPN fluorescence: AalbOBP37 and AalbOBP39 exhibited relatively strong binding to both indole and skatole
AalbOBP37 [2]
  normalized 1-NPN fluorescence: AalbOBP37 and AalbOBP39 exhibited relatively strong binding to both indole and skatole

## C=CC(O)CCCCC (stereo not shown) [1-octen-3-ol]
AalbOBP39 [1]
  normalized 1-NPN fluorescence: AalbOBP39 showed relatively low affinity to DEET and 1-octen-3-ol
AalbOBP37 [2]
  normalized 1-NPN fluorescence: AalbOBP37 showed high affinity to DEET and 1-octen-3-ol

## c1ccc(Nc2cccc3ccccc23)cc1 [N-phenyl-1-naphthylamine]
AalbOBP37 [3]
  direct fluorescence titration: only target OBPs could bind 1-NPN, which showed increasing fluorescent intensity
AalbOBP39 [4]
  direct fluorescence titration: only target OBPs could bind 1-NPN, which showed increasing fluorescent intensity

## CCN(CC)C(=O)c1cccc(C)c1 [DEET]
AalbOBP39 [1]
  normalized 1-NPN fluorescence: AalbOBP39 showed relatively low affinity to DEET and 1-octen-3-ol
AalbOBP37 [2]
  normalized 1-NPN fluorescence: AalbOBP37 showed high affinity to DEET and 1-octen-3-ol
